Usually IC50 stands for the concentration that gives 50% inhibition. Lower therefore signals greater potency in that assay. The term inhibition denotes the relative decrease from the control value, in per cent.

The results in this text go back to ChEMBL document CHEMBL1149765, “Anti-tumor 12-deoxyphorbol esters from Euphorbia cornigera” (Eur J Med Chem, 2008).

Assay [1] deals with KB. Put plainly: Cytotoxicity against human KB cells by MTT assay. In kind it is functional, cell-based. A general note: Tetrazolium dyes change colour on reduction, which living cells bring about.
The subject of assay [2] is KB. Put plainly: Cytotoxicity against human KB cells assessed as viable cells at 1.0 ug/ml by trypan blue exclusion assay. In kind it is functional. The note with it: read-out: Activity.
Assay [3] concerns KB. Briefly: Cytotoxicity against human KB cells assessed as viable cells at 2.5 ug/ml by trypan blue exclusion assay. In kind it is functional. The note with it: read-out: Activity.
The test system of assay [4] is KB. Briefly: Cytotoxicity against human KB cells assessed as viable cells at 5.0 ug/ml by trypan blue exclusion assay. Format: functional. The note with it: read-out: Activity.
The test system of assay [5] is KB. Put plainly: Cytotoxicity against human KB cells assessed as apoptotic cells at 1.0 ug/ml by trypan blue exclusion assay. Format: functional.
The subject of assay [6] is KB. Put plainly: Cytotoxicity against human KB cells assessed as apoptotic cells at 2.5 ug/ml by trypan blue exclusion assay. In kind it is functional.
Assay [7] concerns KB. Put plainly: Cytotoxicity against human KB cells assessed as apoptotic cells at 5.0 ug/ml by trypan blue exclusion assay. In kind it is functional.
The subject of assay [8] is KB. Briefly: Cytotoxicity against human KB cells assessed as necrotic cells at 1.0 ug/ml by trypan blue exclusion assay. In kind it is functional.
The subject of assay [9] is KB. Put plainly: Cytotoxicity against human KB cells assessed as necrotic cells at 2.5 ug/ml by trypan blue exclusion assay. In kind it is functional.
The subject of assay [10] is KB. Briefly: Cytotoxicity against human KB cells assessed as necrotic cells at 5.0 ug/ml by trypan blue exclusion assay. In kind it is functional.
Assay [11] has as its system KB. Put plainly: Inhibition of DNA synthesis in human KB cells assessed as 5-bromo-2'-deoxyuridin incorporation at 2.5 ug/ml. In kind it is functional.
Assay [12] concerns KB. Put plainly: Inhibition of DNA synthesis in human KB cells assessed as 5-bromo-2'-deoxyuridin incorporation at 5.0 ug/ml. In kind it is functional.
Assay [13] has as its system KB. Put plainly: Inhibition of DNA synthesis in human KB cells assessed as ratio of DNA in treated to control cells at 1.0 ug/ml. Format: functional.
In assay [14] the test system is KB. Briefly: Inhibition of DNA synthesis in human KB cells assessed as ratio of DNA in treated to control cells at 2.5 ug/ml. In kind it is functional.
Assay [15] concerns KB. Briefly: Cytotoxicity against human KB cells assessed as viable cells at 0.3 ug/ml by trypan blue exclusion assay. In kind it is functional. The conditions noted are these: read-out: Activity.
Assay [16] has as its system KB. Put plainly: Cytotoxicity against human KB cells assessed as apoptotic cells at 0.3 ug/ml by trypan blue exclusion assay. In kind it is functional.
The subject of assay [17] is KB. Briefly: Cytotoxicity against human KB cells assessed as necrotic cells at 0.3 ug/ml by trypan blue exclusion assay. Format: functional.
The test system of assay [18] is KB. Briefly: Inhibition of DNA synthesis in human KB cells assessed as 5-bromo-2'-deoxyuridin incorporation at 0.3 ug/ml. Format: functional.
Assay [19] deals with KB. Put plainly: Inhibition of DNA synthesis in human KB cells assessed as ratio of DNA in treated to control cells at 0.3 ug/ml. In kind it is functional.

Converted amounts (≈) assume the structure as drawn.

Take `CCCCCCCCCC(=O)OCC1=C[C@H]2[C@@H]3C(C)(C)[C@]3(OC(=O)CCCCCCCCC)C[C@@H](C)[C@]2(O)[C@@H]2C=C(C)C(=O)[C@@]2(O)C1`: the IC50 in [1] worked out at 0.5 µg/mL (≈ 0.761 µM). The viability at 1 µg/mL in assay [2] worked out at 58.8%. Moreover, the viability at 2.5 µg/mL in assay [3] was 36.7%. Moreover, the viability at 5 µg/mL in assay [4] was determined as 15.9%. Also, the Activity in assay [5] is reported as 39.24%; in assay [6], 60.29%; in assay [7], 78.13%; in assay [8] it was 2%; in assay [9] it was 3%; in [10] it was 6%. Moreover, in [11], the inhibition at 2.5 µg/mL stood at 86%. In assay [12], the inhibition at 5 µg/mL worked out at 27.9%. The Ratio is listed as 0.57 in assay [13] and 0.71 in assay [14].

Take `C/C=C(\C)C(=O)OCC1=C[C@H]2[C@@H]3C(C)(C)[C@]3(OC(=O)CCCCCCCCC)C[C@@H](C)[C@]2(O)[C@@H]2C=C(C)C(=O)[C@@]2(O)C1`: the IC50 in assay [1] was 7.6 µg/mL (≈ 13 µM).

`CCCCCCCCCC(=O)OCC1=C[C@H]2[C@@H]3C(C)(C)[C@]3(OC(=O)CCCCCCC)C[C@@H](C)[C@]2(O)[C@@H]2C=C(C)C(=O)[C@@]2(O)C1` yielded an IC50 in assay [1] of 0.8 µg/mL (≈ 1.27 µM). Moreover, in [2], the viability at 1 µg/mL stood at 74.7%. Also, the viability at 2.5 µg/mL in assay [3] was 65%. Moreover, the viability at 5 µg/mL in [4] was 26.1%. Also, the Activity in [5] is 25.23%; in [6], 34%; in [7], 70.89%; in assay [8] it was 0%; in assay [9], 1%; in [10], 3%. Further, the inhibition at 2.5 µg/mL in [11] was 85%. For the same molecule, the inhibition at 5 µg/mL in assay [12] came out at 23%. The Ratio in assay [13] turned out to be 0.87; in assay [14], 0.71.

Take `COc1ccc(C(=O)OCC2=C[C@H]3[C@@H]4C(C)(C)[C@]4(OC(C)=O)C[C@@H](C)[C@]3(O)[C@@H]3C=C(C)C(=O)[C@@]3(O)C2)cc1`: the midpoint of inhibition in [1], the IC50, lay at 8.5 µg/mL (≈ 16.2 µM).

In turn, `CCCCCCCCCCCC(=O)O[C@@]12C[C@@H](C)[C@@]3(O)[C@@H](C=C(COC(=O)CCCCCCCCC)C[C@]4(O)C(=O)C(C)=C[C@@H]34)[C@@H]1C2(C)C` had an IC50 in assay [1] of 1 µg/mL (≈ 1.46 µM). For the same molecule, the viability at 1 µg/mL in [2] came out at 78.8%. For the same molecule, in assay [3], the viability at 2.5 µg/mL stood at 46.7%. In addition, the viability at 5 µg/mL in [4] was 27.9%. Further, the Activity in [5] came out at 11.24%; in [6], 52.23%; in [7], 70.13%; in assay [8] it was 0%; in assay [9], 1%; in assay [10], 2%. The inhibition at 2.5 µg/mL in assay [11] is 76%. The inhibition at 5 µg/mL in [12] worked out at 25.9%. Moreover, the Ratio in assay [13] was 0.47; in assay [14] it was 0.51.

On to `CCCCCCCCCC(=O)OCC1=C[C@H]2[C@@H]3C(C)(C)[C@]3(OC(=O)CCCCC)C[C@@H](C)[C@]2(O)[C@@H]2C=C(C)C(=O)[C@@]2(O)C1`, for which the IC50 in assay [1] worked out at 7.2 µg/mL (≈ 12 µM).

`C/C=C(/C)C(=O)OCC1=C[C@H]2[C@@H]3C(C)(C)[C@]3(OC(=O)CCCCCCCCC)C[C@@H](C)[C@]2(O)[C@@H]2C=C(C)C(=O)[C@@]2(O)C1` registered an IC50 in [1] of 6.4 µg/mL (≈ 10.9 µM).

`CCCCCCCCCC(=O)OCC1=C[C@H]2[C@@H]3C(C)(C)[C@]3(OC(=O)CCC)C[C@@H](C)[C@]2(O)[C@@H]2C=C(C)C(=O)[C@@]2(O)C1` yielded an IC50 in assay [1] of 7.8 µg/mL (≈ 13.6 µM).

Take `CCCCCCCCCC(=O)OCC1=C[C@H]2[C@@H]3C(C)(C)[C@]3(OC(C)=O)C[C@@H](C)[C@]2(O)[C@@H]2C=C(C)C(=O)[C@@]2(O)C1`: in assay [1], the IC50 came to 8.5 µg/mL (≈ 15.6 µM).

For `CC(=O)O[C@@]12C[C@@H](C)[C@@]3(O)[C@@H](C=C(COC(=O)c4ccccc4)C[C@]4(O)C(=O)C(C)=C[C@@H]34)[C@@H]1C2(C)C`, the IC50 in assay [1] amounted to 8.2 µg/mL (≈ 16.6 µM). The IC50 values of the last two molecules are within 1.5-fold of each other.

In [1], `COc1cccc2c1C(=O)c1c(O)c3c(c(O)c1C2=O)C[C@@](O)(C(=O)CO)C[C@@H]3O[C@H]1C[C@H](N)[C@H](O)[C@H](C)O1.Cl` [DOXORUBICIN HYDROCHLORIDE] registered an IC50 of 10 µg/mL.

On to `COc1cccc2c1C(=O)c1c(O)c3c(c(O)c1C2=O)C[C@@](O)(C(=O)CO)C[C@@H]3O[C@H]1C[C@H](N)[C@H](O)[C@H](C)O1` [DOXORUBICIN], for which the viability at 0.3 µg/mL in assay [15] worked out at 37.7%. The figures for the Activity in assay [16] and in assay [17] were 61.33% and 1%, respectively. Further, in [18], the inhibition at 0.3 µg/mL came to 37.7%. Also, in assay [19], the Ratio worked out at 0.57.

In assay [1], `CC(=O)O[C@@]12C[C@@H](C)[C@@]3(O)[C@@H](C=C(CO)C[C@]4(O)C(=O)C(C)=C[C@@H]34)[C@@H]1C2(C)C` [PROSTRATIN] came in with an IC50 of 1000 µg/mL (≈ 2560 µM).
